One data set deals with HEK293. As to the kind of experiment: (§1) Cytotoxicity against HEK293 cells after 72 hrs by MTT assay. It counts as cell-based. The following applies: human, hek293, 72 h. (Formazan colour is commonly taken as a measure of viable cells.)
The test system of the next data set is MDA-MB-231. As to the kind of experiment: Cytotoxicity against human MDA-MB-231 cells after 72 hrs by MTT assay. Type of data set: functional, cell-based. The following applies: MDA-MB-231, 72 h.
For the next data set, the system named is MCF7. Put plainly: Cytotoxicity against human MCF7 cells after 72 hrs by MTT assay. Particulars: MCF7, 72 h. It counts as functional, cell-based.
The next data set concerns HT-29. Put plainly: Cytotoxicity against human HT-29 cells after 72 hrs by MTT assay. Type of data set: functional, cell-based. The following applies: HT-29, 72 h.
Data set [1] has as its target T1, NAD-dependent protein deacetylase sirtuin-1 (Homo sapiens, UniProt Q96EB6).
T1 sequence (Q96EB6 whole entry): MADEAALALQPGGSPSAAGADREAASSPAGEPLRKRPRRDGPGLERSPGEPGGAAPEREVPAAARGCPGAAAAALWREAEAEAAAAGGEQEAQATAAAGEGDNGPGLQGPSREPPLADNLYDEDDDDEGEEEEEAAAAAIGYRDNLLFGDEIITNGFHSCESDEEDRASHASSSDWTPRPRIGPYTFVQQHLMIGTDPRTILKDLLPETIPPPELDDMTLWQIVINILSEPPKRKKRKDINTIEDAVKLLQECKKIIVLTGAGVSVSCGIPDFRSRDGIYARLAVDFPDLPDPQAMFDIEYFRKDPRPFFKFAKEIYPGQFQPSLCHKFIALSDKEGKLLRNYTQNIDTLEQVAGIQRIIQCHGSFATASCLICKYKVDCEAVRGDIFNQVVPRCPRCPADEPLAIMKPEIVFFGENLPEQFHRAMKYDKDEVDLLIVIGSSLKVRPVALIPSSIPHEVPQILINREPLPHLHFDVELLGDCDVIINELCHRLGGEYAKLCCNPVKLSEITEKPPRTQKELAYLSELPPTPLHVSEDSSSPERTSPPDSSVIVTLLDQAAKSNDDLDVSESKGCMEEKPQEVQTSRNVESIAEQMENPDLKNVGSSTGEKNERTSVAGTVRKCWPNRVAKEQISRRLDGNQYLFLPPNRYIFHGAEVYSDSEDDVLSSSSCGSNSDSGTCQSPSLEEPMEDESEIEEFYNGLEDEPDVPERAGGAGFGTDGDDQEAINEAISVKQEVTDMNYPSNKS
As to the kind of experiment: Inhibition of SIRT1 (unknown origin) using AMC-Arg-His-Lys-Lys(Ac) substrate assessed as deacetylation of substrate by fluorimetric enzyme assay.

A short description of data set [2]: as §1. Type of data set: cell-based. The following applies: human, HEK293 cells; read-out: GI.

`CC1=NOC(=O)/C1=C/c1c(COCc2cn(Cc3ccc(OC(F)(F)F)cc3)nn2)n(C)c2ccc(F)cc12`: in the data set with HEK293, the Activity result was “Non-toxic”.
Regarding `Cn1c(COCc2ccc(C(F)(F)F)cc2)c(/C=C2/C(=O)ON=C2C(F)(F)F)c2cc(F)ccc21`, the Activity entry in the data set on HEK293 was “Non-toxic”. Moreover, the IC50 – broadly, the midpoint of a concentration-inhibition curve – turned out to be 5.03 µM in the data set with MDA-MB-231, 5.51 µM with MCF7, 2.59 µM with HT-29 and 37.4 µM in data set [1].
Take `CCN1CCN(C(=O)c2c(/C=C3/C(=O)ON=C3C)c3cc(F)ccc3n2C)CC1`: the Activity result with HEK293 is on record as “Non-toxic”.
Take `Cn1c(COCc2cn(Cc3ccc([N+](=O)[O-])cc3)nn2)c(/C=C2/C(=O)ON=C2C(F)(F)F)c2cc(F)ccc21`: the Activity result in the data set on HEK293 was “Non-toxic”.
On to `Cn1c(C(=O)N2CCOCC2)c(/C=C2/C(=O)ON=C2C(F)(F)F)c2cc(F)ccc21`, for which the Activity entry with HEK293 is “Non-toxic”.
On the same count and under the same terms, the result for `Cn1c(COCc2cn(Cc3ccc(OC(F)(F)F)cc3)nn2)c(/C=C2/C(=O)ON=C2C(F)(F)F)c2cc(F)ccc21` reads “Non-toxic”; that for `CC1=NOC(=O)/C1=C/c1c(C(=O)Nc2ccc(OC(F)(F)F)cc2)n(C)c2ccc(F)cc12`, “Non-toxic”; that for `Cn1c(COCc2cn(Cc3ccc(C#N)cc3)nn2)c(/C=C2/C(=O)ON=C2C(F)(F)F)c2cc(F)ccc21`, “Non-toxic”.
For the compound `CC1=NOC(=O)/C1=C/c1c(COCc2cn(Cc3ccc(C#N)cc3)nn2)n(C)c2ccc(F)cc12`, the Activity entry with HEK293 is listed as “Non-toxic”.
With `CC1=NOC(=O)/C1=C/c1c(C(=O)N2CCOCC2)n(C)c2ccc(F)cc12`, in the data set on HEK293, the Activity result is reported as “Non-toxic”.
On to `CC1=NOC(=O)/C1=C/c1c(C(=O)NCc2ccc(F)cc2)n(C)c2ccc(F)cc12`, for which the Activity entry in the data set with HEK293 is listed as “Non-toxic”.
For `CC1=NOC(=O)/C1=C/c1c(COCc2ccc(C(F)(F)F)cc2)n(C)c2ccc(F)cc12`, the Activity result with HEK293 is given as “Non-toxic”. For the same compound, the IC50 in the data set on MDA-MB-231 amounted to 8.23 µM; in the data set on MCF7, 7.72 µM; in the data set with HT-29, 4.82 µM; in data set [1] it was 35.2 µM.
For `Cn1c(C(=O)NCc2ccc(F)cc2)c(/C=C2/C(=O)ON=C2C(F)(F)F)c2cc(F)ccc21`, the Activity result in the data set with HEK293 was “Non-toxic”.
In the case of `CC1=NOC(=O)/C1=C/c1c(COCc2ccc(C#N)cc2)n(C)c2ccc(F)cc12`, in the data set on HEK293, the Activity entry is on record as “Non-toxic”.
For `Nc1ccn([C@@H]2O[C@H](CO)[C@@H](O)C2(F)F)c(=O)n1` [GEMCITABINE], the IC50 came to 0.65 µM with MDA-MB-231, 0.15 µM with MCF7 and 0.52 µM in the data set on HT-29.
Consider `CCN1CCN(C(=O)c2c(/C=C3/C(=O)ON=C3C(F)(F)F)c3cc(F)ccc3n2C)CC1`, for which the inhibition at 72 h in data set [2] came out at 30%.
Take `CC1=NOC(=O)/C1=C/c1c(C(=O)NCc2ccc(C)cc2)n(C)c2ccc(F)cc12`: the Activity result in the data set with HEK293 is “Non-toxic”.
In the case of `CC1=NOC(=O)/C1=C/c1c(COCc2cn(Cc3ccc(C(F)(F)F)cc3)nn2)n(C)c2ccc(F)cc12`, the inhibition at 72 h in data set [2] was determined as 30%.
For `CC1=NOC(=O)/C1=C/c1c(C(=O)NCc2ccc(OC(F)(F)F)cc2)n(C)c2ccc(F)cc12`, the Activity result in the data set with HEK293 is “Non-toxic”.

For the origin of these results see ChEMBL document CHEMBL3588849, “New indole-isoxazolone derivatives: Synthesis, characterisation and in vitro SIRT1 inhibition studies” (Bioorg Med Chem Lett, 2015).
